{"source": "patent US7622447B2", "about": "“Use of glutathione synthesis stimulating compounds in reducing insulin resistance” (DiaMedica Inc., priority 2002, dated 2009)", "key": {"[1]": {"tested_on": "Wistar rats", "test": "Rapid Insulin Sensitivity Test (RIST), euglycemic clamp, in saline and BSO (GSH-depleted) rats", "type": "in vivo, rat", "description": "The rapid insulin sensitivity test (RIST) was employed (Lautt et al., Can. J. Physiol. Pharmacol. 76:1080 (1998)) is employed to avoid the complexity of the reaction to hypoglycemia. The RIST involves use of a euglycemic clamp following the administration of insulin and quantitation of the response as the amount of glucose required to be infused over the test period in order to hold arterial blood glucose levels constant. […] It is highly reproducible with up to five consecutive responses being obtainable in cats and four in rats with blood glucose levels returning to control levels between each test. Insulin, glucagon, and catecholamine levels remain unchanged between tests.\n(§1) Summary: GSH depletion was induced in 5 week old Wistar rats using buthionine sulfoximine (BS), 2 mmol/kg bw, i.p. for 20 days. Control rats were injected with an equal volume of saline. Insulin sensitivity was measured using a euglycemic clamp, the Rapid Insulin Sensitivity Test—RIST. In both the saline group (SG) and BSO group (BG) a control RIST followed by a RIST post-L-NAME (1 mg/kg i.p.v.), a NOS competitive antagonist, and a RIST post-SIN-1 (5 mg/kg i.p.v.), a NO donor, were performed. The liver was removed for further determined of hepatic GSH content using the GSH peroxidase-reductase assay. […] The control RIST, 248.0±15.8 mg glucose/kg for SG, was impaired in the BG (158.4±12.2 mg glucose/kg; p<0.01). After L-NAME the SG RIST was 129.0±1.9 mg glucose/kg and the BG RIST was 109.0±9.1 mg glucose/kg. […] HISS action, quantified by subtracting the post L-NAME RIST from the control RIST, was 114.0±15.8 mg glucose/kg for SG and only 49.3±8.6 mg glucose/kg for BG (p<0.01). HISS dependent insulin resistance appears to be related to impaired levels of GSH in the liver, leading to a compromised HISS secretion/release.\nMale Wistar rats (8 weeks) were anaesthetized with sodium pentobaribtial (65 mg/kg). Body temperature was maintained at 37±0.5 °C. An arterial-venous loop (carotid artery and internal jugular vein) was employed. A catheter was inserted into the portal vein.\nRIST (Rapid Insulin Sensitivity Test): Blood samples (25 μl) for arterial glucose analysis were taken from the arterial-venous loop. A stable glucose baseline was established. Insulin (50 mU/kg i.v.) was infused over 5 minutes. Arterial blood samples were taken every 2 minutes. Glucose was adjusted to maintain euglycemia. RIST index=mg glucose/kg infused during RIST."}, "[2]": {"tested_on": "cats", "details": "cited from earlier work"}, "[3]": {"tested_on": "HISS", "test": "HISS action after NOS blockade", "type": "in vivo"}, "[4]": {"tested_on": "fasting-induced HDIR", "test": "Fasting-induced HISS-dependent insulin resistance (HDIR) model, overnight fast", "type": "in vivo", "description": "A model of low hepatic GSH and NO production is produced by overnight fasting."}, "[5]": {"tested_on": "hepatic GSH", "test": "Hepatic GSH content by GSH peroxidase-reductase assay", "type": "in vivo, rat", "description": "as §1, with “Test-RIST.” for “Test—RIST.”, “post-[…]” for “post-L-NAME (1 mg/kg i.p.v.), a”, “secretion/release. […] CONTENT: […] Hepatic GSH content was decreased in 48.3±6.9% in BSO group. ***=p<0.001.” for “secretion/release.”"}, "[6]": {"tested_on": "hepatic glutathione", "details": "cited from earlier work"}}, "note": "Several values for one entry are separate records, joined by “and”; a condition that tells them apart may be missing. Identical values can stand only once. Entries after “also recorded” stand apart in the source; their conditions may differ."}
{"compound": "COC(=O)[C@@H](N)CCCNC(=N)N[N+](=O)[O-]", "note": "[L-NAME]", "values": [{"measurement": "RIST index post-L-NAME in BSO group", "setting": "[1]; BSO-treated rats, L-NAME 1 mg/kg intraportal", "value": "109.0±9.1 mg glucose/kg and 109.8±9.1 mg glucose/kg"}, {"measurement": "inhibition of RIST index by L-NAME", "setting": "[1]; control group, L-NAME 1 mg/kg i.p.v.", "value": "52.3±5.8", "unit": "%"}]}
{"compound": "COc1ccccc1CNCCCCCCNCCCCCCCCNCCCCCCNCc1ccccc1OC", "note": "[methoctramine]", "values": [{"measurement": "dose producing full / similar degree of insulin resistance", "setting": "[2]", "value": "10^−6 μmol/kg"}]}
{"compound": "Nitroprusside", "values": [{"measurement": "HISS action after NOS blockade", "setting": "[3]", "value": "not able to restore HISS action after NOS blockade"}]}
{"compound": "CN1[C@@H]2CC[C@H]1C[C@@H](OC(=O)C(CO)c1ccccc1)C2", "note": "(some centres unmarked) [atropine]", "values": [{"measurement": "hepatic glucose response", "setting": "[2]; arterial-venous glucose response to bolus insulin after atropine", "value": "not notably altered"}]}
{"compound": "[NH-]c1c[n+](N2CCOCC2)no1", "note": "[SIN-1, 3-morpholinosyndnonimine]", "values": [{"measurement": "restoration of RIST index / insulin action by SIN-1 in BSO group", "setting": "[1]; BSO-treated rats, SIN-1 5 mg/kg i.p.v. after L-NAME, 5 mg/kg", "value": "only restored insulin action in the SG; also recorded: did not reverse the RIST index to control values"}, {"measurement": "RIST index post-SIN-1", "setting": "[1]; saline/control group, SIN-1 5 mg/kg i.p.v. after L-NAME, 5 mg/kg", "value": "246.0±11.5 mg glucose/kg and 258.1±18.5 mg glucose/kg"}, {"measurement": "reversal of fasting induced HDIR by SIN-1 alone", "setting": "[4]; SIN-1 2.5 to 10 mg/kg i.p.v., overnight fast", "value": "do not reverse fasting induced HDIR"}, {"measurement": "HISS action after NOS blockade", "setting": "[3]", "value": "reverses HISS inhibition after NOS blockade"}]}
{"compound": "N[C@@H](CCC(=O)N[C@@H](CS)C(=O)NCC(=O)O)C(=O)O", "note": "[GSH, glutathione]", "values": [{"measurement": "reversal of HDIR / reduction in insulin resistance by GSH alone", "setting": "[4]; GSH by itself", "value": "small but significant reduction in insulin resistance; also recorded: minor reversal of HDIR"}, {"measurement": "insulin sensitivity / reversal of HDIR by GSH together with NO donor", "setting": "[4]; GSH plus NO / NO donor", "value": "Improved insulin sensitivity; also recorded: only becomes therapeutically significant after the addition of the NO donor"}]}
{"compound": "CN1CCN(CC(=O)N2c3ccccc3C(=O)Nc3cccnc32)CC1", "note": "[pirenzepine]", "values": [{"measurement": "dose producing a similar degree of insulin resistance", "setting": "[2]", "value": "10^−7 mmol/kg"}]}
{"compound": "CCCCS(=N)(=O)CCC(N)C(=O)O", "note": "(centres unmarked) [BSO, buthionine sulfoximine]", "values": [{"measurement": "control RIST index in BSO group", "setting": "[1]; BSO 2 mmol/kg bw i.p. for 20 days, before L-NAME", "value": "158.4±12.2", "unit": "mg glucose/kg"}, {"measurement": "decrease of HISS action", "setting": "[1]; BSO group compared to control group", "value": 64.4, "unit": "%"}, {"measurement": "HISS-independent component of insulin action", "setting": "[1]; BSO group versus control group", "value": "not different"}, {"measurement": "HISS action (HISS-dependent component of insulin action)", "setting": "[1]; BSO group, control RIST minus post L-NAME RIST", "value": "49.3±8.6 mg glucose/kg and 49.3±8.56 mg glucose/kg"}, {"measurement": "reduction in hepatic GSH content", "setting": "[5]; BSO group compared to saline/control group", "value": "48.3±6.9", "unit": "%"}, {"measurement": "hepatic GSH content", "setting": "[5]; BSO group, BSO 2 mmol/kg bw i.p. for 20 days", "value": "2.96±0.4", "unit": "μmol/g fresh liver"}]}
{"compound": "C[S+](CC[C@H](N)C(=O)O)C[C@H]1O[C@@H](n2cnc3c(N)ncnc32)[C@H](O)[C@@H]1O", "note": "(some centres unmarked) [SAMe, S-adenosylmethionine]", "values": [{"measurement": "time of peak glutathione levels", "setting": "[6]; after oral administration of SAMe", "value": "3 to 6", "unit": "h"}, {"measurement": "intrahepatic glutathione after SAMe administration", "setting": "[6]; in vivo", "value": "restored to near-normal levels"}]}
